Measured values taken from patent publication EP1452605A1, “Method for determining antiviral activity” (Universiteit Utrecht Holding B.V., priority 2003, dated 2004).
pIC50: −log10 of the molar value.

Legend:
[1] = test system: CrFK cells; assay: Cellular viability assay (MTT) of CrFK cells; format: cell-based, feline
[2] = test system: HIV-1Ba-L; assay: Entry assay: gag RNA in PBMC by real-time Taqman PCR; format: cell-based; conditions: gag RNA in PBMC 2h after infection, 10 or 30 µM APHS
Procedure: PBMC infection with HIV-1Ba-L or HIV-1HXB2 for real-time Taqman PCR The ability of HIV-1Ba-L to enter the cells in the presence of APHS was tested using DS as positive control (entry assay). The amount of HIV-1HXB2 reverse transcription products in the presence of APHS was also tested, using AZT as positive control (reverse transcription assay). Before infection, PHA-stimulated PBMC from the PBMC batch were pre-incubated with different concentrations of APHS, DS or AZT for 24 h. […]
Real-time Taqman PCR is based on cleavage of a probe, hybridized to the target sequence by 5'-3' nuclease activity of Taq DNA polymerase during amplification, as described previously ^24. […] Once separated from the quencher, the reporter dye emits its characteristic fluorescence, which can then be measured. The amount of fluorescence measured is proportional to the amount of PCR product.
HIV-1 gag cDNA and HIV-1 (-) strong stop and gag DNA were amplified and quantified by real-time Taqman PCR as described elsewhere ^25. […] To quantify the amount of gag RNA in the samples, a cDNA standard curve was prepared from five-fold dilutions of extracted RNA from an HXB2 viral batch, of which the RNA amount was previously determined.

[3] = test system: HIV-1AT; assay: HIV-1 infection of PBMC, p24-core antigen ELISA; format: cell-based; conditions: Human immunodeficiency virus 1, 168 h; PBMC infected with HIV-1AT, p24 antigen after 7 days
Procedure: (§1) To correct for the input virus, an extra control consisting of medium containing the same amount of input virus as added to the cells was included in the experiment. The amount of p24 in this control was subsequently subtracted from the p24 values of the samples in order to obtain the exact amount of p24 produced by the cells. p24-core antigen quantification by ELISA After 2 or 7 days incubation, samples of the supernatants were collected, inactivated by addition of Empigen (Calbiochem, La Jolla, CA, USA) and by heat inactivation at 56°C for 30 min. p24-core antigen concentration was determined by an enzyme linked immunoabsorbent assay (ELISA) (AMPAK™, DAKO, Cambridgeshire, UK) as described previously ^18,19. The optical density values were converted into p24 concentration (ng/ml) with the use of a calibration curve made by serial dilutions of recombinant p24 protein (NIBSC, UK) that was submitted to the same treatment as the samples.

[4] = test system: HIV-1HXB2; assay: HIV-1 infection of PBMC, p24-core antigen ELISA; format: cell-based; conditions: Human immunodeficiency virus 1, 168 h; PBMC infected with HIV-1HXB2, p24 antigen after 7 days
Procedure: as §1

[5] = test system: several HIV-1 strains (macrophage-tropic and/or lymphocytotropic); assay: HIV-1 replication in primary cells (summary over strains and cell types); format: cell-based; conditions: Human immunodeficiency virus 1, read-out: 50% inhibitory concentration values
Procedure: as §1

[6] = test system: FIV UT-113; assay: FIV infection of CrFK cells, FIV p24 ELISA; format: cell-based, Feline immunodeficiency virus (FIV); conditions: 100 to 0.024 µM, p24 after 6 days
Procedure: After 6 days of incubation FIV replication was measured by quantification of the p24 viral core antigen in the cell culture supernatant by an FIV p24 enzyme-linked immunoabsorbent assay as described previously ^19.

[7] = concentrations of APHS up to 100 mg/kg; cited from earlier work
[8] = test system: HXB2; assay: Drug susceptibility assay (cell-killing MTT assay) in MT-2 cells; conditions: Human immunodeficiency virus 1, HXB2, MT2, 120 h
Procedure: The cells were maintained at 37°C, 5% CO2. One day prior to the experiments, the cells were passaged 1:1 in a concentration of 1 × 10^6 cells/ml.
The genes that contain the drug resistance mutations are excised from the clinical isolates and cloned into the genetic background of HXB2. Thus all tested HIV-1 strains have the same genetic background. […] This strain contains an insertion of two a.a. between codons 68 and 69 of RT as well as an a.a. change at codon 67.
After 5 days of incubation a cellular viability assay was performed as described above. In this case, the amount of formazan reflects the number of cells protected by the drug against killing by the virus and is used as a read out for drug susceptibility.

[9] = Cellular viability assay (MTT) of HFF overlayed with BHK cells; format: cell-based, Human; conditions: hff and bhk cells; read-out: TC50 (the source's name)
[10] = test system: HFF and BHK cells; assay: as above; format: cell-based, Human
[11] = Cellular viability assay (MTT) of MDM; format: cell-based; conditions: human, 7 days, read-out: TC50

For `CCCCC#CCSc1ccccc1OC(C)=O` [APHS, o-(acetoxyphenyl)hept-2-ynyl sulfide], which “cytotoxicity for CrFK cells” value [1] is on record?
The value was “not cytotoxic”.

What about the “viral entry” value [2] of the same molecule?
Its value is “no inhibition of viral entry”.

And the pIC50 [3]?
Its pIC50 is 5.15.

And the pIC50 [4]?
The pIC50 was 4.96.

And the pIC50 [5]?
The pIC50 was ~5.00.

And the “effect on FIV replication” value [6]?
The value was “did not show any effect”.

What about the “toxicity in the rat air pouch model” value [7] of the same molecule?
Its value is “no toxicity”.

What about the pIC50 [8] of the same molecule?
The pIC50 was 5.00.

And the CC50 [9]?
Its CC50 is 374 µM.

What about the “cytotoxicity for HFF and BHK cells” value [10] of the same molecule?
Its value is “not cytotoxic”.

What about the CC50 at 168 h [11] of the same molecule?
The CC50 at 168 h was 235 µM.
